The test relates to A431 tumor. Briefly: In vivo antitumor effect on A431 tumor in nude mice. On the set-up: species or system Balb/c female nude mice. On the procedure: (4) In vivo Antitumor Effect
Human epidermoid cancer cell A431 (5×10^6/100 μl) suspended in PBS was subcutaneously implanted on the back of Balb/c female nude mice (Balb/cAJcl-nu mouse, Clea Japan, Inc., 5-week-old when purchased) and when the average volume of the implanted tumor reached approximately about 100 mm^3 in about 7 days, the mice were allocated (4 per group) to make the average tumor volume the same for each group. The tumor volume was obtained by measuring the long diameter and the short diameter with a caliper and according to: [(short diameter)^2×long diameter/2]=tumor volume [mm^3]. A pharmaceutical agent was forcibly administered orally once a day for 14 consecutive days from the day of the allocation, and the drug was not given to the mice of the control group. The relative tumor growth rate, with the tumor volume of the day of start of the administration as 1, was calculated for the control group and the treatment group. Antitumor effect (%) of control=(relative tumor growth rate of treatment group on the last day −1)/(relative tumor growth rate of control group on the last day −1)×100

Each structure is given as a SMILES string.

Regarding `C=CC(=O)Nc1cc2c(Nc3ccc(F)c(Cl)c3)ncnc2cc1C#CC(C)(C)N1CCN(C)CC1` [compound 1a.2TsOH, 1a.ditosylate], the “% of control (antitumor effect)” value (1 mg/kg orally once a day for 14 days) turned out to be 41.0%. Moreover, the “relative tumor growth rate” value (1 mg/kg orally once a day for 14 days, volume at start = 1) amounted to 2.95. Besides, the “antitumor effect (in words)” value (A431 tumor, oral, 14 days) was “dose-dependent antitumor effect”.
